Measured values reported in the supplement of paper PMC10307832.

Assays:
Test in all cases: relative viability (nuclei count vs DMSO), 5 days (fraction); higher = more cells survive
[1] = compound: Cc1ccc(C(=O)N(CCCN)[C@@H](c2nc3cc(Cl)ccc3c(=O)n2Cc2ccccc2)C(C)C)cc1 [Ispinesib] + COc1cc2c(Oc3ccc(NC(=O)C4(C(=O)Nc5ccc(F)cc5)CC4)cc3F)ccnc2cc1OCCCN1CCOCC1 [Foretinib] (partner 0.25 µM)
Summary of the method: (§1)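 Relative viability is defined as nuclei in treated wells over nuclei in vehicle wells. Duplicate plates were run and medians reported. Lung cancer cell lines in 1536-well plates were dosed by pin tool one day after seeding, with one drug or with a fixed anchor-drug dose plus five library-drug doses (not always all listed) in √10 steps, and nuclei were counted after 5 days.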

[2] = compound: C[C@]1(O)C[C@@H](c2nc(-c3ccc4ccc(-c5ccccc5)nc4c3)c3c(N)nccn32)C1 [Linsitinib] + Cc1nc(Nc2ncc(C(=O)Nc3c(C)cccc3Cl)s2)cc(N2CCN(CCO)CC2)n1 [Dasatinib] (partner 0.075 µM)
Summary of the method: as §1

[3] = compound: Cc1ccc(C(=O)N(CCCN)[C@@H](c2nc3cc(Cl)ccc3c(=O)n2Cc2ccccc2)C(C)C)cc1 [Ispinesib] + CC(=O)c1c(C)c2cnc(Nc3ccc(N4CCNCC4)cn3)nc2n(C2CCCC2)c1=O [Palbociclib] (partner 0.5 µM)
Summary of the method: as §1

[4] = compound: Cc1ccc(C(=O)N(CCCN)[C@@H](c2nc3cc(Cl)ccc3c(=O)n2Cc2ccccc2)C(C)C)cc1 [Ispinesib] + CC1(C)CCC(c2ccc(Cl)cc2)=C(CN2CCN(c3ccc(C(=O)NS(=O)(=O)c4ccc(N[C@H](CCN5CCOCC5)CSc5ccccc5)c(S(=O)(=O)C(F)(F)F)c4)cc3)CC2)C1 [Navitoclax] (partner 0.5 µM)
Summary of the method: as §1

Cell Line | relative viability ([1]; first compound 0.001 µM) | relative viability ([1]; first compound 0.003162 µM) | relative viability ([1]; first compound 0.01 µM) | relative viability ([1]; first compound 0.03162 µM) | relative viability ([1]; first compound 0.1 µM) | relative viability ([2]; first compound 0.01 µM) | relative viability ([2]; first compound 0.03162 µM) | relative viability ([2]; first compound 0.1 µM) | relative viability ([2]; first compound 0.3162 µM) | relative viability ([2]; first compound 1 µM) | relative viability ([3]; first compound 0.001 µM) | relative viability ([3]; first compound 0.01 µM) | relative viability ([3]; first compound 0.03162 µM) | relative viability ([3]; first compound 0.1 µM) | relative viability ([4]; first compound 0.001 µM) | relative viability ([4]; first compound 0.003162 µM) | relative viability ([4]; first compound 0.01 µM) | relative viability ([4]; first compound 0.03162 µM) | relative viability ([4]; first compound 0.1 µM) | relative viability ([3]; first compound 0.003162 µM)
EKVX | 0.897 | 0.85 | 1.05 | 0.604 | 0.275 | 0.603 | 0.625 | 0.532 | 0.513 | 0.5 | 0.456 | 0.409 | 0.463 | 0.295 | 1.07 | 0.964 | 1.06 | 0.75 | 0.22 | –
EPLC-272H | 0.793 | 0.657 | 0.659 | 0.322 | 0.23 | 0.359 | 0.407 | – | – | 0.261 | 0.341 | 0.329 | 0.328 | 0.149 | 1.24 | 1.21 | 1.25 | 0.784 | 1.02 | 0.306
LK-2 | 1.25 | 1.21 | 1.43 | 1.2 | 0.617 | 0.281 | 0.328 | 0.212 | 0.228 | 0.197 | 0.687 | 0.824 | 0.743 | 0.188 | 0.93 | 0.808 | 1.01 | 0.661 | 0.298 | 0.821
CAL-12T | 1.2 | 1.06 | 1.31 | 0.938 | 0.197 | 0.362 | 0.359 | 0.485 | 0.178 | 0.273 | 0.452 | 0.29 | 0.177 | 0.195 | 1.28 | 1.4 | 1.47 | 0.537 | 0.177 | 0.409
NCI-H322M | 1.09 | 0.994 | 0.957 | 0.498 | 0.43 | 0.244 | 0.256 | 0.229 | 0.223 | 0.26 | 0.5 | 0.494 | 0.463 | 0.426 | 1.2 | 1.13 | 1.15 | 1.14 | 1.15 | 0.505
NCI-H1650 | 1.27 | 1.44 | 1.12 | 0.305 | 0.273 | 0.291 | 0.293 | 0.355 | 0.258 | 0.241 | 0.368 | 0.3 | 0.172 | 0.254 | 1.33 | 1.32 | 1.23 | 0.258 | 0.25 | 0.346
NCI-H1648 | – | – | – | – | – | – | – | – | – | – | 0.285 | 0.248 | 0.291 | 0.256 | – | – | – | – | – | 0.297
SW 1573 | 0.978 | 0.893 | 0.907 | 1.1 | 0.32 | 0.454 | 0.454 | 0.453 | 0.348 | 0.252 | 0.385 | 0.32 | 0.18 | 0.218 | 1.22 | 1 | 1.21 | 0.915 | 0.17 | 0.404
